Measured values: ChEMBL document CHEMBL4304790, “Successful Strategies for Mitigation of a Preclinical Signal for Phototoxicity in a DGAT1 Inhibitor” (ACS Med Chem Lett, 2019)
≈ marks a conversion by molar mass, not a printed value. Where a name gives a salt, the structure may show the parent alone. Each block holds one compound with its values, some of them ahead of it. Calls of active or inactive are those of the source. The calls are words filed in the database; no cut-off is given here.

How the values were obtained:
[1] = molecular target: T1, Diacylglycerol O-acyltransferase 1 (Mus musculus, UniProt Q9Z2A7); assay: (§1) Inhibition of DGAT1 in mouse C2C12 cells assessed as reduction in intracellular triglyceride production incubated for 2 hrs in presence of BSA-complexed oleate by LC/MS/MS analysis; type: cell-based
T1 sequence (Q9Z2A7 whole entry): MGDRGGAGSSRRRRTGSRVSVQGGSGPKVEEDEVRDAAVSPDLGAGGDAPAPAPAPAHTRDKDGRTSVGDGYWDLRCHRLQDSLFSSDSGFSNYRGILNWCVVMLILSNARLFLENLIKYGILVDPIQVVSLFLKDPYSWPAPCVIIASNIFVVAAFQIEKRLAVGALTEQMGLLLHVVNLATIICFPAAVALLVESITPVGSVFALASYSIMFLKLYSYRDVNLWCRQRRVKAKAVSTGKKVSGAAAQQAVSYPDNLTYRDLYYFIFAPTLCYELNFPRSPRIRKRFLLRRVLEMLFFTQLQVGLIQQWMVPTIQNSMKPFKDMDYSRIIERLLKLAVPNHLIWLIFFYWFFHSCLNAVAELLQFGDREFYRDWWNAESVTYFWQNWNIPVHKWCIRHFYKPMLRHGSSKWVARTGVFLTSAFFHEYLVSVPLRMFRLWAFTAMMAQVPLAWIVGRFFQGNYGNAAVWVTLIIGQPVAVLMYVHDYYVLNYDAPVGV

[2] = Lipophilicity, log D of the compound at pH 7.4; type: physicochemical; conditions: buffer
[3] = Dissociation constant, pKa of compound; type: physicochemical
[4] = Photo irritation factor, ratio of IC50 for cytotoxicity against BALB/c mouse 3T3 cells pretreated for 1 hr prior to 50 mins incubation in dark conditions followed by further incubation in DMEM medium for 20 to 22 hrs to IC50 for cytotoxicity against BALB/c mouse 3T3 cells pretreated for 1 hr prior to irradiation with UVA for 50 mins followed by further in DMEM medium incubation for 20 to 22 hrs …; type: cell-based; conditions: BALB/c 3T3 cells
[5] = molecular target: T2, Diacylglycerol O-acyltransferase 1 (Mus musculus) (UniProt Q9Z2A7); assay: as §1; type: cell-based
T2 sequence (whole entry): T1 sequence (Q9Z2A7 whole entry)

[6] = molecular target: T3, Diacylglycerol O-acyltransferase 1 (Homo sapiens) (UniProt O75907); assay: (§2) Inhibition of recombinant human his-tagged DGAT1 expressed in Sf9 insect cells using oleoyl-CoA and diolein as substrates incubated for 30 mins by LC/MS/MS analysis
T3 sequence (whole entry): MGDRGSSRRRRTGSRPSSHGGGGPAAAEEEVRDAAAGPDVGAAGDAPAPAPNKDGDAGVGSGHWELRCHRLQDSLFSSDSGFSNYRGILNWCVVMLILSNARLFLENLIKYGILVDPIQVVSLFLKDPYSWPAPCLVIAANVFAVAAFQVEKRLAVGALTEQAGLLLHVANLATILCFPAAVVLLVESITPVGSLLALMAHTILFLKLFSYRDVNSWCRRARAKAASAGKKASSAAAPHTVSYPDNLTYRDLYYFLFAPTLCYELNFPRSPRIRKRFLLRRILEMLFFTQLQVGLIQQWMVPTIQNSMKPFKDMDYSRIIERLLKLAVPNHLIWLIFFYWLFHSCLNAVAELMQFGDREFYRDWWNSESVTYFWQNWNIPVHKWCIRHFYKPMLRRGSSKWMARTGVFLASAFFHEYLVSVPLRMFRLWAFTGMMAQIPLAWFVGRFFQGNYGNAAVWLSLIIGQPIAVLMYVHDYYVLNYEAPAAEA

[7] = Toxicity in preclinical models assessed as GI tolerability
[8] = Solubility of compound at pH 6.8; type: physicochemical; conditions: buffer
[9] = Protein binding in rat plasma; type: ADME, cell-free; conditions: read-out: PPB (converted)
[10] = Permeability across apical to basolateral side in human Caco2 cells; type: ADME, cell-based; conditions: Caco-2, read-out: permeability
[11] = AUC (0 to 24 hrs) in Sprague-Dawley rat at 0.5 mg/kg, iv measured upto 24 hrs; type: ADME, organism-based; design: time < 24 hr, dose 0.5 mg/kg, route intravenous; conditions: in vivo
[12] = Volume of distribution in Sprague-Dawley rat at 0.5 mg/kg, iv measured upto 24 hrs; type: ADME, organism-based; conditions: in vivo
[13] = Clearance in Sprague-Dawley rat at 0.5 mg/kg, iv measured upto 24 hrs; type: ADME, organism-based; conditions: in vivo
[14] = Half life in Sprague-Dawley rat at 0.5 mg/kg, iv measured upto 24 hrs; type: ADME, organism-based; conditions: in vivo
[15] = Cmax in Sprague-Dawley rat at 1.5 mg/kg, po measured upto 24 hrs; type: ADME, organism-based; design: dose 1.5 mg/kg, route oral; conditions: in vivo
[16] = Oral bioavailability in Sprague-Dawley rat at 1.5 mg/kg measured upto 24 hrs; type: ADME, organism-based; conditions: in vivo
[17] = Permeability across basolateral to apical side in human Caco2 cells; type: ADME, cell-based; conditions: Caco-2, read-out: permeability
[18] = Drug uptake in plasma of Sprague-Dawley rat lipid bolus model at 5 mg/kg, po administered via gavage 4 hrs prior to lipid challenge and measured upto 8 hrs post compound dose by LC-MS/MS analysis; type: ADME, organism-based; conditions: in vivo
[19] = Tmax in Sprague-Dawley rat at 1.5 mg/kg, po measured upto 24 hrs; type: ADME, organism-based; conditions: in vivo
Rattus norvegicus [20] = species: Rattus norvegicus; conditions: Sprague-Dawley, 5 mg/kg
[21] = AUC (0 to 24 hrs) in Sprague-Dawley rat at 1.5 mg/kg, po measured upto 24 hrs; type: ADME, organism-based; design: time < 24 hr, dose 1.5 mg/kg, route oral; conditions: in vivo
[22] = Half life in Sprague-Dawley rat at 1 mg/kg, iv measured upto 24 hrs; type: ADME, organism-based; conditions: in vivo
Rattus norvegicus [23] = assay: Antihyperlipidemic activity in Sprague-Dawley rat lipid bolus model assessed as reduction in plasma triglyceride excursion at 5 mg/kg, po administered via gavage 4 hrs prior to lipid challenge and measured upto 8 hrs post compound dose by GPO-Trinder method relative to control; type: functional
[24] = AUC (0 to 24 hrs) in Sprague-Dawley rat at 5 mg/kg, po measured upto 24 hrs; type: ADME, organism-based; design: dose 5 mg/kg, time < 24 hr, route oral; conditions: in vivo
[25] = Efflux ratio of permeability across basolateral to apical side over apical to basolateral side in human Caco2 cells; type: ADME, cell-based; conditions: Caco-2
[26] = Half life in po dosed human plasma administered as single dose; type: ADME, organism-based
[27] = Volume of distribution in Sprague-Dawley rat at 1 mg/kg, iv measured upto 24 hrs; type: ADME, organism-based; conditions: in vivo
[28] = Tmax in Sprague-Dawley rat at 5 mg/kg, po measured upto 24 hrs; type: ADME, organism-based; conditions: in vivo
[29] = molecular target: T4, Diacylglycerol O-acyltransferase 1 (Homo sapiens, UniProt O75907); assay: as §2
T4 sequence (O75907 whole entry): T3 sequence (whole entry)

[30] = Oral bioavailability in Sprague-Dawley rat at 5 mg/kg measured upto 24 hrs; type: ADME, organism-based; conditions: in vivo
[31] = Clearance in Sprague-Dawley rat at 1 mg/kg, iv measured upto 24 hrs; type: ADME, organism-based; conditions: in vivo
[32] = AUC (0 to 24 hrs) in Sprague-Dawley rat at 1 mg/kg, iv measured upto 24 hrs; type: ADME, organism-based; design: dose 1 mg/kg, time < 24 hr, route intravenous; conditions: in vivo
[33] = Cmax in Sprague-Dawley rat at 5 mg/kg, po measured upto 24 hrs; type: ADME, organism-based; design: dose 5 mg/kg, route oral; conditions: in vivo

EC50 [1]: 2.3 µM | logD [2]: 0.7 | pKa [3]: 3.8
Structure (SMILES): CC(C)c1nnc(Nc2ccc(-c3ccc(N4CCC(CC(=O)O)CC4)cc3)nc2)o1

EC50 [1]: 0.027 µM
Structure (SMILES): CCc1nnc(Nc2ccc(-c3ccc([C@H]4CC[C@H](CC(=O)O)CC4)cc3)nc2)o1

EC50 [1]: 0.206 µM
Structure (SMILES): Cc1nnc(Nc2ccc(-c3ccc([C@H]4CC[C@H](CC(=O)O)CC4)cc3)nc2)o1

EC50 [1]: 0.012 µM | logD [2]: 2.8
Structure (SMILES): O=C(O)C[C@H]1CC[C@H](c2ccc(-c3ccc(Nc4nnc(C5CCC5)o4)cn3)cc2)CC1

logD [2]: 1.5 | pKa [3]: 3.9
Structure (SMILES): O=C(O)CC12CCC(c3ccc(-c4ccc(Nc5nnc(C6CCC6)o5)cn4)cc3)(CC1)CO2

inhibition [5]: Active | inhibition [6]: Active
Structure (SMILES): CC(C)(C)c1nnc(Nc2ccc(-c3ccc([C@H]4CC[C@H](CC(=O)O)CC4)cc3)nc2)o1

solubility [8]: < 5 µM | fraction unbound [9]: < 0.01 | Papp A→B [10]: 5.9 ×10⁻⁶ cm/s | AUC(0-t) at 24 h [11]: 5.16 µM·h | Vd [12]: 0.7 L/kg | clearance [13]: 3.5 mL/min/kg | half-life [14]: 3.2 h | Cmax [15]: 6.1 µM | bioavailability [16]: > 100% | Papp B→A [17]: 11.8 ×10⁻⁶ cm/s | Drug uptake [18]: Active | logD [2]: 2.4 | Tmax [19]: 1 h | AUC(0-t) at 24 h [21]: 25.8 µM·h
Structure (SMILES): O=C(O)CC12CCC(c3ccc(-c4ccc(Nc5nnc(C6CCC6)o5)cc4)cc3)(CC1)CO2
Activity [7]: Non-Toxic | inhibition (Rattus norvegicus [20]): Active

solubility [8]: 13 µM (≈ 6.17 µg/mL) | fraction unbound [9]: < 0.01 | Papp A→B [10]: 18.3 ×10⁻⁶ cm/s | AUC(0-t) at 24 h [11]: 51.4 µM·h | Vd [12]: 0.3 L/kg | clearance [13]: 0.2 mL/min/kg | half-life [14]: 20 h | Cmax [15]: 28 µM | bioavailability [16]: > 100% | Papp B→A [17]: 7.7 ×10⁻⁶ cm/s | Drug uptake [18]: Active | Tmax [19]: 3 h | AUC(0-t) at 24 h [21]: 180 µM·h
Structure (SMILES): CCc1nc(C)c(C(=O)Nc2ccc(-c3ccc(C45CCC(CC(=O)O)(CC4)OC5)cc3)cc2)o1
Activity [7]: Non-Toxic | inhibition (Rattus norvegicus [20]): Active

Continued, compound first:

Structure (SMILES): O=C(O)C[C@H]1CC[C@H](c2ccc(-c3ccc(Nc4nnc(C5CCC5)s4)cn3)cc2)CC1
EC50 [1]: 0.008 µM

Structure (SMILES): CN(C)CCCN1c2ccccc2Sc2ccc(Cl)cc21 [CHLORPROMAZINE HYDROCHLORIDE]
selectivity ratio [4]: > 6

Structure (SMILES): CCc1nc(C)c(C(=O)Nc2ccc(-c3ccc([C@H]4CC[C@H](CC(=O)O)CC4)cc3)nc2)o1
selectivity ratio [4]: 1 | EC50 [1]: 0.008 µM

Structure (SMILES): COc1ccc2nc(Nc3ccc(-c4ccc([C@H]5CC[C@H](CC(=O)O)CC5)cc4)nc3)oc2c1
selectivity ratio [4]: 17

Structure (SMILES): O=C(O)C[C@H]1CC[C@H](c2ccc(-c3ccc(Nc4ccc(C(F)(F)F)nc4)cn3)cc2)CC1
half-life [22]: 5.1 h | Activity [7]: Non-Toxic | solubility [8]: < 5 µM | fraction unbound [9]: 0.003 | Papp A→B [10]: 8.1 ×10⁻⁶ cm/s | inhibition in vivo at 5 mg/kg (Rattus norvegicus [23]): 50 to 70% | AUC(0-t) at 24 h [24]: 190 µM·h | efflux ratio [25]: 0.28 | half-life [26]: 125 h | Vd [27]: 0.1 L/kg | selectivity ratio [4]: 56 | EC50 [1]: 0.071 µM | Tmax [28]: 0.7 h | IC50 [29]: 0.055 µM | bioavailability [30]: 83% | Papp B→A [17]: 2.3 ×10⁻⁶ cm/s | clearance [31]: 1 mL/min/kg | logD [2]: 3.6 | AUC(0-t) at 24 h [32]: 46 µM·h | Cmax [33]: 42 µM | pKa [3]: 4.1
